pIC50: −log10 of the molar value.
Key:
Type in all cases: biochemical
GFAT-alpha = target: T1, GFAT-alpha (Homo sapiens, UniProt Q06210); test: GFAT inhibition, microtiter plate glucosamine 6-phosphate assay (GFAT-alpha); settings: enzyme expressed in SF9 insect cells; 60 minutes at 37° C.; OD 585 nm; read-out: IC50 (concentration inhibiting 50% of maximum stimulation), GFAT-alpha
T1 construct: made in house; host or cells: SF9 insect cells (sonicated, centrifuged cell extract)
Description: (§1) For measurement of […], the GFAT enzyme reaction and analysis of the product are preferably carried out directly in a microtiter plate. The preferred reaction volume of 100 μl consists of the substrates glutamine (10 mM) and fructose 6-phosphate (10 mM), phosphate buffered saline (PBS) pH 7.4, ethylenediaminetetraacetic acid (EDTA) (5 mM), dithiothreitol (DTT) (1 mM), and the GFAT enzyme preparation or tissue extract (0.25-50 μl). The incubation mixture is added to the plate, the plate sealed, and placed floating on a 37° C. water bath for 1 hour. Additional incubation mixture is kept on ice to add to standard and control samples. After incubation, non-incubated control and glucosamine 6-phosphate standards of 2.5 to 30 nmoles along with the cold incubator mixture are added to the appropriate wells in the plate. The glucosamine 6-phosphate produced in the incubation mixtures is acetylated by first adding acetic anhydride 1.5% in acetone (10 μl), followed by potassium tetraborate 200 mM (50 μl). The plate is sealed, shaken for 2 minutes on a microshaker, and placed on an 80° C. water bath for 25 minutes. The plate is cooled by placing it on ice for 5 minutes and then Ehrlich's reagent is added (130 μl) (2 g Ehrlich's reagent+0.3 ml water+2.2 ml concentrated hydrochloric acid+17.4 ml acetic acid which is diluted 1:2 in acetic acid before use). The plate is then placed on a 37° C. water bath for 20 minutes and the OD determined at 500-610 nm, preferably 585 nm.
The reaction mixture is made including enough for standard curve samples and kept on ice. The reaction is started by adding the incubation reagents to the microtiter plate, sealing the plate, and placing the plate in a water bath at 37° C. for 1 hr. Standard curve samples are added to the plate, 2.5 to 30 nmoles/well/10 μl, and the cold mix added to control and standard curve samples. Glucosamine 6-phosphate is acetylated with acetic anhydride 1.5%/acetone 10 μl+potassium tetraborate 200 mM 50 μl, by sealing the plate, shaking for 2 minutes and placing on an 80° C. water bath for 25 minutes, then cooling on ice for 5 minutes. Diluted Ehrlich's reagent 130 μl is added and the plate placed on a 37° C. water bath for 20 minutes. The OD is determined at 585 nm.
Stimulation of GFAT activity. […] For most testing, a 60-minute incubation at 37° C. is carried out in 96 well microtiter plates. To give the best heat transfer the plates are sealed with a Costar plate sealer and floated on a 37° C. water bath. Air bubbles are removed from the bottom of the plate to ensure proper heat transfer to all wells. The 100 μl reaction volume consists of glutamine 10 mM, fructose 6-phosphate 10 mM, PBS 1×, EDTA 5 mM DTT 1 mM, and the enzyme preparation. […]

GFAT-beta [1] = target: T2, GFAT-beta (Homo sapiens, UniProt O94808); test: Substrate Km determination, Lineweaver-Burk plot (GFAT-beta); settings: extracts from transfected SF9 insect cells, other substrate at saturating levels
T2 construct: made in house; host or cells: SF9 insect cells (sonicated, centrifuged cell extract)
Description: FIG. 3 illustrates the effect of varying concentrations of the substrates glutamine and fructose 6-phosphate on the enzyme activity of GFAT-alpha and GFAT-beta. FIG. 3A is a graph illustrating incubation with 10 μl glutamine 200 mM+10 μl fructose 6-phosphate 3.125, 6.25, 12.5, 25, 50, 100, and 200 mM. FIG. 3B is a graph illustrating incubation with 10 μl fructose 6-phosphate 200 mM+10 μl glutamine 3.125, 6.25, 12.5, 25, 50, 100, and 200 mM. 10 μl of GFAT-alpha and 5 μl of GFAT-beta extracts from transfected SF9 insect cells are incubated with 1) 10 μl glutamine 200 mM+10 μl fructose 6-phosphate 3.125, 6.25, 12.5, 25, 50, 100, and 200 mM, and 2) 10 μl fructose 6-phosphate 200 mM+10 μl glutamine 3.125, 6.25, 12.5, 25, 50, 100, and 200 mM in an incubation media containing 10 μl PBS 10×, 10 μl EDTA 50 mM, 10 μl, DTT 10 mM and water to 100 μl. The plate is sealed with a Costar plate sealer and incubated for 60 minutes at 37° C. by floating on a water bath. Additional incubation mixture is kept on ice to add to standard and control samples. […] After a 20-minute incubation at 37° C., the OD is determined for each well at 585 nm. […]
FIG. 3C is a table illustrating the Km values of the substrates for the GFAT-alpha and GFAT-beta enzymes calculated from the data generated in FIGS. 3A and 3B. […]

GFAT-beta [2] = target: T2, GFAT-beta; test: GFAT inhibition, microtiter plate glucosamine 6-phosphate assay (GFAT-beta)
Description: as §1, with “The plate is cooled by placing it on ice for 5 minutes and then Ehrlich's reagent is added (130 μl) (2 g Ehrlich's reagent+0.3 ml water+2.2 ml concentrated hydrochloric acid+17.4 ml acetic acid which is diluted 1:2 in acetic acid before use).” left out
The reaction mixture is made including enough for standard curve samples and kept on ice. […] The OD is determined at 585 nm. […]

T1 sequence (Q06210 1-681 isoform Q06210-2 I57T): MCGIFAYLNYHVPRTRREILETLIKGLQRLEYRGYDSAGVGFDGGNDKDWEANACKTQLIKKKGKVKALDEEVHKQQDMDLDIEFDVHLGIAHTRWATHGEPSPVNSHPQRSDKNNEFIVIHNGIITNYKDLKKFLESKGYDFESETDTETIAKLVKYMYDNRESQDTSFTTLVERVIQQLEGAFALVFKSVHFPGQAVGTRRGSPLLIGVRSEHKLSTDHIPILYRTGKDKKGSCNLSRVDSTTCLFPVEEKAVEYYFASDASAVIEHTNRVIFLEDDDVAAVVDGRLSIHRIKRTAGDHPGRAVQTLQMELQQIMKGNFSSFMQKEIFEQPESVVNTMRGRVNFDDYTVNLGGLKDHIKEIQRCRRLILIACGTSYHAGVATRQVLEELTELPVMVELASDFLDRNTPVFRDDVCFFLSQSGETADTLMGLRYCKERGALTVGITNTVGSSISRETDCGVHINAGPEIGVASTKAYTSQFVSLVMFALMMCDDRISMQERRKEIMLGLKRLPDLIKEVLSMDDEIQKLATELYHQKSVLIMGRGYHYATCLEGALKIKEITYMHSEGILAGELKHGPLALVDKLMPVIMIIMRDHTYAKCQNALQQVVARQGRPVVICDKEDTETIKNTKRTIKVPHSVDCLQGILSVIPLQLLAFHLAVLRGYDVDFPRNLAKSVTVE
T2 sequence (O94808 whole entry): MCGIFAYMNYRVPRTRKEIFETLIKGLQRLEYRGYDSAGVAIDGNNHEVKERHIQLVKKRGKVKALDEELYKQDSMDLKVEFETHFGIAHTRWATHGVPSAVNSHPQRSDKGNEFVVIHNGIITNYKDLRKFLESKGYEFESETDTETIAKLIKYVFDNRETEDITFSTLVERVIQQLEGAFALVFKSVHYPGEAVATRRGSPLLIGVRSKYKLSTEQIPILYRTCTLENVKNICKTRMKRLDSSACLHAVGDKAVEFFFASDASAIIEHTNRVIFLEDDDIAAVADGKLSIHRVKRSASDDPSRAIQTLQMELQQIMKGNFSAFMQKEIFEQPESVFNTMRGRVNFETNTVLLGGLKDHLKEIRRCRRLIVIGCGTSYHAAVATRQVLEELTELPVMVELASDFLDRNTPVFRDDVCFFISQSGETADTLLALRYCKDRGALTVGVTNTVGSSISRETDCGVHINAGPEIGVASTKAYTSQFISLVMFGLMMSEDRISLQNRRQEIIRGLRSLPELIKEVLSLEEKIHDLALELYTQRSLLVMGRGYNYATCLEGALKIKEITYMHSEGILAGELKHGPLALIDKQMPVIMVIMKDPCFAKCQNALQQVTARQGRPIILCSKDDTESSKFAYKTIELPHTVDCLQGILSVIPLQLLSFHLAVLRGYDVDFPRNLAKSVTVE

Km (GFAT-beta [1]) | Molecule | pIC50 (GFAT-alpha) | also measured
6.8 mM | O=C(CO)[C@@H](O)[C@H](O)[C@H](O)COP(=O)(O)O [fructose 6-phosphate] | – | –
1.99 mM | NC(=O)CC[C@H](N)C(=O)O [glutamine] | – | –

Further lines, the molecule ahead of its results:

Molecule | Km (GFAT-beta [1]) | pIC50 (GFAT-alpha) | also measured
[N-]=[N+]=CC(=O)CC[C@H](N)C(=O)O [DON, 6-diazo-5-oxo-L-norleucine] | – | 4.74 | –
COC(=O)/C=C/C(=O)NC[C@H](N)C(=O)O [FMDP, N3-(-4-methoxyfumaroyl)-L-2,3-diaminopropanoic acid] | – | 5.40 | –
N[C@@H](CNC(=O)CBr)C(=O)O [N3-(bromoacetyl)-L-2,3-diaminopropanoic acid] | – | 6.42 | –
uridine-diphosphate-N-acetylglucosamine [UDP-N-acetylglucosamine] | – | 5.10 | pIC50 (GFAT-beta [2]; enzyme expressed in SF9 insect cells, 60 minutes at 37° C., OD 585 nm, read-out: IC50 (concentration inhibiting 50% of maximum stimulation), GFAT-beta): 4.00; times as much required to inhibit GFAT-beta compared with GFAT-alpha (GFAT-beta [2]; ratio of IC50 GFAT-beta to GFAT-alpha): more than 12 times
